Here are results for three molecules from paper PMC10892984, “Novel Antineoplastic Inducers of Mitochondrial Apoptosis in Human Cancer Cells” (Molecules, 2024).

The TGI is the concentration at which net growth stops. A lower TGI goes with greater sensitivity of the cells. The GI50 is the concentration that inhibits growth by half. A high value points to lower sensitivity of the cells.

The test system of the test is HL-60 (TB). The settings on record: for CC50: read-out: LC50; for TGI: HL-60 (TB), leukemia, mutant p53, 48 h.

As for `c1cc(CNC23CC4CC(CC(C4)C2)C3)cc(C[N+](Cc2cccc(CNC34CC5CC(CC(C5)C3)C4)c2)(Cc2cccc(CNC34CC5CC(CC(C5)C3)C4)c2)Cc2cccc(CNC34CC5CC(CC(C5)C3)C4)c2)c1` (centres unmarked) [Compound 1, tetrakis{3-[(tricyclo[3.3.1.1^3,7]decan-1-ammonio)methyl]benzyl}ammonium pentachloride], the CC50 (Homo sapiens, HL-60, 48 h) is greater than 50000 nM.

`COc1cc2c(c(OC)c1OC)-c1ccc(NNC(N)=S)c(=O)cc1C(NC(C)=O)CC2` [Compound 2, N-[(aS,7S)-10-(2-carbamothioylhydrazinyl)-1,2,3-trimethoxy-9-oxo-5,6,7,9-tetrahydrobenzo[a]heptalen-7-yl]acetamide monohydrate × ⅔ (ethyl acetate)] yielded a TGI of 1260 nM. Further, where the note is “Homo sapiens, HL-60, 48 h”, the GI50 amounted to 113 nM and the CC50 is greater than 100000 nM.

For `COc1cc2c(c(OC)c1OC)-c1ccc(NNC(=S)N(Cc3cccc(C[N+](Cc4cccc(CNC56CC7CC(CC(C7)C5)C6)c4)(Cc4cccc(CNC56CC7CC(CC(C7)C5)C6)c4)Cc4cccc(CN(C(=S)NNc5ccc6c(cc5=O)C(NC(C)=O)CCc5cc(OC)c(OC)c(OC)c5-6)C56CC7CC(CC(C7)C5)C6)c4)c3)C34CC5CC(CC(C5)C3)C4)c(=O)cc1C(NC(C)=O)CC2` [Compound 3, [(bis{3-[(tricyclo[3.3.1.1^3,7]decan-1-ylamino)methyl]benzyl}ammonio)bis(methanediylbenzene-3,1-diylmethanediyl)]di-2-[(aS,7S)-7-(acetylamino)-1,2,3-trimethoxy-9-oxo-5,6,7,9-tetrahydrobenzo[a]heptalen-10-yl]-N-(tricyclo[3.3.1.1^3,7]decan-1-yl)hydrazinecarbothioamide chloride pentahydrate], the TGI turned out to be 1030 nM.
